In patent publication US20200206173A1, “A PERSONAL CARE COMPOSITION” (Conopco, Inc., d/b/a UNILEVER, priority 2017, published 2020):

Tested on: IL-6 in THP-1 monocytes
Assay: Anti-inflammation efficacy in THP-1 in vitro assay: IL-6 in supernatant by ELISA after LPS stimulation
Type: cell-based
Conditions: LPS 1 μg/mL, 24 hours, PMA-differentiated THP-1
Method: The following procedure was used to test the anti-inflammation efficacy of the various actives alone or in combination. • (i) 5×10^5 THP-1 monocytes were placed into 24-well plates, with 100 nM PMA in the culture media to differentiate the cell. • (ii) After 72 hours differentiation, treatments as follows were supplemented into fresh media and applied to the cells: • Example 1: Vehicle control with LPS (1 μg/mL) stimulation • Example 2,3: DHA at 100 or 20 μM alone with LPS (1 μg/mL) stimulation. • Example 4,5: Niacinamide at 10000 or 5000 μM alone with LPS (1 μg/mL) stimulation. • Example 6,7: Combinations of 100 μM DHA and either 10000 or 5000 μM of niacinamide. • Example 8: Combination of 20 μM DHA and 10000 μM of niacinamide. • (iii) After 24 hours incubation, the supernatants were collected. • (iv) Then IL-6 concentration was quantified in the supernatant by BD Elisa kit. • (v) IL-6 inhibition rate was calculated in comparison with vehicle control with LPS stimulation as a reference for each treatment.
The lower the percentage, the higher the anti-inflammatory potential. The CI value (combination index) of the various combinations is also less than 1 indicating synergism.
The data below is expressed in % IL-6 inhibition rate in Table-2 below. • (i) 5×10^5 THP-1 monocytes were placed into 24-well plates, with 100 nM PMA in the culture media to differentiate the cell. • (ii) After 72 hours differentiation, treatments as follows were supplemented into fresh media and applied to the cells: • Example 9: Vehicle control with LPS (1 μg/mL) stimulation • Example 10,11,12: DHA at 100, 50 or 25 μM alone with LPS (1 μg/mL) stimulation. • Example 13,14,15: Niacinamide at 5000, 2500 or 1250 μM alone with LPS (1 μg/mL) stimulation. • Example 16: Combinations of 100 μM DHA and 5000 μM of niacinamide. • Example 17: Combination of 50 μM DHA and 2500 μM of niacinamide. • Example 18: Combination of 25 μM DHA and 1250 μM of niacinamide. • (iii) After 24 hours incubation, the supernatants were collected. • (iv) Then IL-6 concentration was tested in the supernatant by BD Elisa Kit. • (v) IL-6 inhibition rate was calculated in comparison with vehicle control with LPS stimulation as reference, for each treatment.
Experiments were carried out at various concentrations of DHA and niacinamide at mole ratios outside the invention i.e., at 1:12.5. The data below is expressed in % IL-6 inhibition rate in Table-3 below: • (i) 5×10^5 THP-1 monocytes were placed into 24-well plates, with 100nM PMA in the culture media to differentiate the cell. • (ii) After 72 hours differentiation, treatments as follows were supplemented into fresh media and applied to the cells: • Example 20: Vehicle control with LPS (1 μg/mL) stimulation • Example 21,22,23: DHA at 100, 50 or 25 μM alone with LPS (1 μg/mL) stimulation. • Example 24,25,26: Niacinamide at […] alone with LPS (1 μg/mL) stimulation. • Example 27: Combinations of 100 μM DHA and 1250 μM of niacinamide. • Example 28: Combination of 50 μM DHA and 625 μM of niacinamide. • Example 29: Combination of 25 μM DHA and […] of niacinamide. • (iii) After 24 hours incubation the supernatants were collected. • (iv) Then IL-6 concentration was tested in the supernatant by BD Elisa Kit. • (v) IL-6 inhibition rate was calculated in comparison with vehicle control with LPS stimulation as reference, for each treatment.

Row | Structure (SMILES) | % of LPS (concentration of IL-6 as a % of that obtained for LPS) (20 μM of DHA alone) | % of LPS (concentration of IL-6 as a % of that obtained for LPS) (25 μM of DHA alone) | % of LPS (concentration of IL-6 as a % of that obtained for LPS) (50 μM of DHA alone) | % of LPS (concentration of IL-6 as a % of that obtained for LPS) (100 μM of DHA alone) | % of LPS (concentration of IL-6 as a % of that obtained for LPS) (100 μM of DHA alone, listed as 10) | % of LPS (concentration of IL-6 as a % of that obtained for LPS) (100 μM of DHA alone, listed as 21) | % of LPS (concentration of IL-6 as a % of that obtained for LPS) (317.5 μM of niacinamide alone) | % of LPS (concentration of IL-6 as a % of that obtained for LPS) (625 μM of niacinamide alone) | % of LPS (concentration of IL-6 as a % of that obtained for LPS) (1250 μM of niacinamide alone, listed as 15) | % of LPS (concentration of IL-6 as a % of that obtained for LPS) (1250 μM of niacinamide alone, listed as 24) | % of LPS (concentration of IL-6 as a % of that obtained for LPS) (2500 μM of niacinamide alone) | % of LPS (concentration of IL-6 as a % of that obtained for LPS) (5000 μM of niacinamide alone, listed as 5) | % of LPS (concentration of IL-6 as a % of that obtained for LPS) (5000 μM of niacinamide alone, listed as 13) | % of LPS (concentration of IL-6 as a % of that obtained for LPS) (10000 μM of niacinamide alone)
1 | CC/C=C\C/C=C\C/C=C\C/C=C\C/C=C\C/C=C\CCC(=O)O [Example 2, docosahexaenoic acid] | 58.5% | 65.5% | 38.7% | 14.7% | 8.3% | 8.3% | – | – | – | – | – | – | – | –
2 | NC(=O)c1cccnc1 [Example 4, niacinamide] | – | – | – | – | – | – | 84.2% | 77.6% | 64.5% | 35.4% | 50.8% | 33.4% | 26.5% | 5.7%
